“Also recorded” adds a separate entry of the source. Where two headings read alike, the source gives them in different places.
Key:
[1] = tested on: MPC and MTT cells; assay: Viability assay (colorimetric tetrazolium dye); format: cell-based, mouse; conditions: MPC and MTT cells (similar); three days after treatment start; two treatments at 24 h interval
Experimental: Viability of cells seeded into collagen-coated 96-well microplates (6×10^4/cm^2) was measured three days after treatment start using a colorimetric tetrazolium dye assay [39]. Doxorubicin served as positive control.

[2] = biological target: T1, SSTR2 (Mus musculus, UniProt P30875); assay: [68Ga]Ga-DOTA-TATE radioligand uptake in cells; format: cell-based; conditions: MPC cells; 37 °C; VPA 10^-3 mol/L; DAC 5×10^-7 mol/L; attributed to cytotoxic effects
T1 construct: endogenous in cells; host or cells: MPC and MTT mouse pheochromocytoma cells (cell homogenates), untreated or treated with VPA + DAC
T1 sequence (P30875 whole entry): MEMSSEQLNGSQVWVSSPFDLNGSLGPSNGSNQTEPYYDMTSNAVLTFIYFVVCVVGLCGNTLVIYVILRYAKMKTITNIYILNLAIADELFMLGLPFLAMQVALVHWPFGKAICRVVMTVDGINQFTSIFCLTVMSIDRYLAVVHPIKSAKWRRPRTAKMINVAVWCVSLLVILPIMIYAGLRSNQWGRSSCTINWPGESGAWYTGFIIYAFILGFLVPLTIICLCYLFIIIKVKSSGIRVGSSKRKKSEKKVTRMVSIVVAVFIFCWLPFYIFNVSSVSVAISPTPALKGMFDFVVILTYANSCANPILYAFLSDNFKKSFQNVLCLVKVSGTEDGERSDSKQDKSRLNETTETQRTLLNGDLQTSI
Experimental: Cells were seeded into collagen-coated microplates or collagen-coated flasks 24 h before epigenetic treatment (ET) start and treated twice (24 h interval) with VPA and DAC, as single and combination doses, respectively. Treatment effects were investigated two to six days (d) after final ET. Preparation of epigenetic drugs is reported in Supplemental Information 1.1.
Radionuclide production and supply are described in Supplemental Information 1.2.
Cells were seeded into collagen-coated 24-well microplates (2.5×10^4/cm^2) and uptake of [^68Ga]Ga-DOTA-TATE was measured three and seven days after ET start. Cells were incubated with fresh cell culture medium containing 0.8 MBq/mL [^68Ga]Ga-DOTA-TATE (Am = 10 MBq/nmol), equivalent to 80 nmol/L, for 60 min at 4 °C or 37 °C. Cells were washed and lysed, and activity of cell lysates was measured as described previously. Total protein in cell lysates was measured using the Qubit protein assay (Thermo Fisher Scientific). Uptake of [^68Ga]Ga-DOTA-TATE was reported as % initial dose per mg of protein.

[3] = tested on: MPC tumors; format: in vivo, mouse; conditions: MPC
Experimental: During anesthesia, animals were continuously warmed at 37°C. […] Animals were sacrificed using CO2 inhalation and cervical dislocation.
107 (30%), muscle (0%), kidneys (25%), and liver (35%).
116 attenuation. Images were post-processed and analyzed using ROVER (ABX). Three-
118 kidneys (15%), and liver (25%). […]

[4] = tested on: MTT tumors; conditions: for SUVmean tumor / SUVmax ratio tumor / muscle / SUVmax tumor / SUVmean ratio tumor / muscle: MTT
Experimental: All animal experiments were carried out according to the guidelines of the German Regulations for Animal Welfare and have been approved by the local Ethical Committee for Animal Experiments. A number of 4×10^6 MPC or MTT cells were re-suspended in 40 µL of Dulbecco's phosphate-buffered saline and injected subcutaneously into the shoulder of 10-15 week-old female nude mice (Rj:NMRI-Foxn1^nu/nu, Janvier Labs, Le Genest-Saint-Isle, France). Prior to imaging procedures, general anesthesia was induced and maintained with inhalation of 10% (v/v) desflurane in 30/10% (v/v) oxygen/air. During anesthesia, animals were continuously warmed at 37°C. Tumor growth was monitored three times per week using caliper measurements. Tumor volume was calculated assuming a tri-axial ellipsoid with the axes a, b, and c using the formula V = π/6×abc. Animals were sacrificed using CO2 inhalation and cervical dislocation.
Preparation of epigenetic drugs is described in Supplemental Information 1.1. Animals received VPA (1.7×10^‒3 mol/kg ≈ 250 mg/kg), DAC ([…] ≈ 1 mg/kg), or a combination of both, in Dulbecco's phosphate buffered saline (200 µL/30 g body weight), delivered as two consecutive intraperitoneal injections in a 72 h-interval. Applied doses were within the epigenetically effective dose range in mice, as reported elsewhere, [41]-[43]. The estimated human equivalent doses corresponded to 20‒30% of the clinically applied tumor-suppressive doses in patients, [45]. Animals in control groups received Dulbecco's phosphate buffered saline only. Multiple independent experiments were performed, always including animals of all treatment groups (Table 1).
Small animal positron emission tomography (PET) was performed using the nanoPET/CT scanner (Mediso Medical Imaging Systems, Budapest, Hungary). […] Recording, binning, framing, and image reconstruction were performed as reported previously. Dynamic imaging was performed for 60 min, static imaging between 40‒60 min after radiotracer injection. With each PET scan, a corresponding CT image was recorded and used for anatomical referencing and attenuation correction. […] Standardized uptake values (SUV) were determined and reported as SUVmean (VOI-averaged) and SUVmax (VOI-maximum). Details on quantitative PET image analysis are provided in Supplemental Information 1.4.
106 (VOIs) were created (40‒60 min frames) applying fixed thresholds for delineation of tumor
107 (30%), muscle (0%), kidneys (25%), and liver (35%). […]

[5] = tested on: SSTR2; conditions: cited from earlier work
From the text: HDAC and DNMT inhibitors can have different impacts depending on the cellular background. For example, in QGP-1 cells, DAC induced, but VPA inhibited SSTR2 gene expression.

CCCC(CCC)C(=O)O [VPA, valproic acid]
LD50 [1]: 0.0013 mol/L
[68Ga]Ga-DOTA-TATE uptake (effect) [2]: impairment of [68Ga]Ga-DOTA-TATE uptake; also recorded: reduced radiotracer uptake at 37 °C
SUVmean tumor ([3]; [64Cu]Cu-DOTA-TATE, 40‒60 min p.i., day 1 after final ET, control or VPA 250 mg/kg, DAC 1 mg/kg days −3 and 0, mean ± SEM): 6.91 ± 1.19
SUVmax ratio tumor / muscle ([3]; animal 1, 40‒60 min p.i.): 33.0
SUVmax tumor ([3]; animal 1, 40‒60 min p.i.): 8.80
SUVmean ratio tumor / muscle ([3]; animal 1, 40‒60 min p.i.): 60.0
SUVmean tumor ([3]; animal 1, 40‒60 min p.i.): 4.22
SUVmax ratio tumor / muscle ([3]; animal 2, 40‒60 min p.i.): 60.8
SUVmax tumor ([3]; animal 2, 40‒60 min p.i.): 10.8
SUVmean ratio tumor / muscle ([3]; animal 2, 40‒60 min p.i.): 67.2
SUVmean tumor ([3]; animal 2, 40‒60 min p.i.): 5.61
SUVmax ratio tumor / muscle ([3]; animal 3, 40‒60 min p.i.): 78.3
SUVmax tumor ([3]; animal 3, 40‒60 min p.i.): 19.7
SUVmean ratio tumor / muscle ([3]; animal 3, 40‒60 min p.i.): 91.2
SUVmean tumor ([3]; animal 3, 40‒60 min p.i.): 8.55
SUVmax ratio tumor / muscle ([3]; animal 4, 40‒60 min p.i.): 65.2
SUVmax tumor ([3]; animal 4, 40‒60 min p.i.): 18.5
SUVmean ratio tumor / muscle ([3]; animal 4, 40‒60 min p.i.): 100
SUVmean tumor ([3]; animal 4, 40‒60 min p.i.): 9.24
SUVmax ratio tumor / muscle ([3]; as SUVmean, mean ± SEM): 59.3 ± 9.54
SUVmax tumor ([3]; as SUVmean, mean ± SEM): 14.5 ± 2.73
SUVmean ratio tumor / muscle ([3]; as SUVmean, mean ± SEM): 79.6 ± 9.53
increase of average SUVmean of tumors vs control cohort ([4]; MTT tumors, VPA 250 mg/kg, DAC 1 mg/kg, single or combination, i.p. twice at 72 h interval, DAC P < 0.05, combination P < 0.01): 1.4 fold
SUVmean tumor ([4]; [64Cu]Cu-DOTA-TATE, 40‒60 min p.i., day 1 after final ET, control or VPA 250 mg/kg, DAC 1 mg/kg days −3 and 0, mean ± SEM, DAC P < 0.05, VPA+DAC P < 0.001): 0.73 ± 0.08
SUVmax ratio tumor / muscle ([4]; animal 1, 40‒60 min p.i.): 3.3
SUVmax tumor ([4]; animal 1, 40‒60 min p.i.): 0.69
SUVmean ratio tumor / muscle ([4]; animal 1, 40‒60 min p.i.): 3.20
SUVmean tumor ([4]; animal 1, 40‒60 min p.i.): 0.34
SUVmax ratio tumor / muscle ([4]; animal 2, 40‒60 min p.i.): 4.72
SUVmax tumor ([4]; animal 2, 40‒60 min p.i.): 1.41
SUVmean ratio tumor / muscle ([4]; animal 2, 40‒60 min p.i.): 10.52
SUVmean tumor ([4]; animal 2, 40‒60 min p.i.): 0.70
SUVmax ratio tumor / muscle ([4]; animal 3, 40‒60 min p.i.): 8.25
SUVmax tumor ([4]; animal 3, 40‒60 min p.i.): 1.61
SUVmean ratio tumor / muscle ([4]; animal 3, 40‒60 min p.i.): 7.63
SUVmean tumor ([4]; animal 3, 40‒60 min p.i.): 0.71
SUVmax ratio tumor / muscle ([4]; animal 4, 40‒60 min p.i.): 10.8
SUVmax tumor ([4]; animal 4, 40‒60 min p.i.): 1.60
SUVmean ratio tumor / muscle ([4]; animal 4, 40‒60 min p.i.): 11.4
SUVmean tumor ([4]; animal 4, 40‒60 min p.i.): 0.73
SUVmax ratio tumor / muscle ([4]; animal 5, 40‒60 min p.i.): 5.31
SUVmax tumor ([4]; animal 5, 40‒60 min p.i.): 1.62
SUVmean ratio tumor / muscle ([4]; animal 5, 40‒60 min p.i.): 7.80
SUVmean tumor ([4]; animal 5, 40‒60 min p.i.): 0.74
SUVmax ratio tumor / muscle ([4]; animal 6, 40‒60 min p.i.): 5.70
SUVmax tumor ([4]; animal 6, 40‒60 min p.i.): 1.73
SUVmean ratio tumor / muscle ([4]; animal 6, 40‒60 min p.i.): 9.73
SUVmean tumor ([4]; animal 6, 40‒60 min p.i.): 0.86
SUVmax ratio tumor / muscle ([4]; animal 7, 40‒60 min p.i.): 6.06
SUVmax tumor ([4]; animal 7, 40‒60 min p.i.): 2.23
SUVmean ratio tumor / muscle ([4]; animal 7, 40‒60 min p.i.): 9.95
SUVmean tumor ([4]; animal 7, 40‒60 min p.i.): 1.06
SUVmax ratio tumor / muscle ([4]; as SUVmean, mean ± SEM): 6.30 ± 0.94
SUVmean ratio tumor / muscle ([4]; as SUVmean, mean ± SEM, DAC P < 0.05): 8.60 ± 1.04
SUVmax tumor ([4]; as SUVmean, mean ± SEM, VPA+DAC P < 0.01): 1.55 ± 0.17
percentage of MTT responders (SUV) ([4]; n = 7 per cohort, threshold control mean + 2×TE): 29%
SSTR2 expression (effect) ([5]; BON-1 cells, monotherapies and combined application): increased
SSTR2 gene expression (effect) ([5]; QGP-1 cells): inhibited
stimulating effects on SSTR2 expression and [111In]In-DOTA-TATE uptake, reversibility ([5]; one day after VPA withdrawal): largely reversible one day after VPA withdrawal

From publication PMC9800739, “Epigenetic drugs in somatostatin type 2 receptor radionuclide theranostics and radiation transcriptomics in mouse pheochromocytoma models” (Theranostics, 2023)
